# Activity calls are given as the source filed them. No cut-off for these calls is given here.
# Columns and labels:
# RAW264.7 [1] = test: Synergistic increase in […]-induced TBK1 phosphorylation in mouse RAW264.7 cells by Western blot analysis; assay type: functional, cell-based
# [2] = Antiviral activity against rhesus rotavirus assessed as inhibition of replication by qRT-PCR analysis; assay type: functional, Simian rotavirus A strain RRV
# [3] = target: Stimulator of interferon genes protein (Homo sapiens) (UniProt Q86WV6); test: Induction of wild type STING dimerization in human HeLa cells transfected with wild type STING at 10 uM measured after 5 hr by Western blot analysis; assay type: cell-based; settings: filed as agonist
# Mus musculus [4] = test: Induction of immune-activation effect in wild type female BALB/c mouse assessed as increase in serum TNFalpha level at 15 to 30 mg/kg, ip measured after 24 to 48 hrs by ELISA relative to control; assay type: functional, organism-based; settings: dose 15-30 mg/kg, time 24-48 hrs
# [5] = target: Stimulator of interferon genes protein (Homo sapiens) (UniProt Q86WV6); test: Induction of STING-dependent gene expression in human HT-1080 cells assessed as TNFalpha mRNA expression at 20 uM incubated for 8 hrs by qRT-PCR analysis; assay type: cell-based; settings: filed as agonist
# HT-1080 [6] = test: Cytotoxicity against human HT-1080 cells assessed as cell viability measured after 72 hrs by MTT assay; assay type: functional, cell-based; settings: HT-1080, 72 h
# [7] = target: T1, Stimulator of interferon genes protein (Mus musculus) (UniProt Q3TBT3); test: Induction of STING dimerization in mouse BMDM cells at 2.5 to 20 uM measured after 5 hrs by Western blot analysis; assay type: cell-based; settings: filed as agonist, dose 2.5-20 µM
# T1 sequence (whole entry): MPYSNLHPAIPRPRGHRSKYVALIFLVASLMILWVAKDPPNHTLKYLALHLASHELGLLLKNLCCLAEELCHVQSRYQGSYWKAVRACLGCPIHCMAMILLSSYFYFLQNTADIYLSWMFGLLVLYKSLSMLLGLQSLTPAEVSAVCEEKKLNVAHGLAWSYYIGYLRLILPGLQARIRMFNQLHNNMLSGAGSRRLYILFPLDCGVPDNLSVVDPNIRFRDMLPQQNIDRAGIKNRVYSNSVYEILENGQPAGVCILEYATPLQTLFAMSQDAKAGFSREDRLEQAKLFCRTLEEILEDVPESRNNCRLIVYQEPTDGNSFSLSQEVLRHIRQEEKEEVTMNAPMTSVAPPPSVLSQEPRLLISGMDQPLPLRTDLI
# [8] = target: Stimulator of interferon genes protein (Homo sapiens) (UniProt Q86WV6); test: Agonist activity at STING in human HT-1080 cells assessed as increase in TBK1 phosphorylation at 20 uM measured after 5 hrs by Western blot analysis; assay type: cell-based; settings: filed as agonist
# [9] = target: T1, Stimulator of interferon genes protein (Mus musculus); test: Agonist activity at STING in mouse BMDM cells assessed as increase in TBK1 phosphorylation at 2.5 to 20 uM measured after 5 hrs by Western blot analysis; assay type: cell-based; settings: filed as agonist, dose 2.5-20 µM
# [10] = system: Herpes simplex virus unknown type; test: Antiviral activity against HSV infected in human HT-1080 cells assessed as reduction viral protein ICP0 expression at 2.5 to 20 uM pretreated for 1 hr followed by infection measured after 18 hrs by Western blot analysis; assay type: functional, cell-based; settings: dose 2.5-20 µM, time 19.0 hrs
# [11] = target: Stimulator of interferon genes protein (Homo sapiens) (UniProt Q86WV6); test: Induction of oligomerization of STING in human HeLa cells transfected with wild type STING (unknown origin) assessed as intracellular puncta formation at 10 uM measured after 1 hr by DAPI staining based immunofluorescence microscopy; assay type: cell-based; settings: filed as agonist
# SARS-CoV-2 = test: Antiviral activity against SARS-CoV-2 assessed as inhibition of replication by qRT-PCR analysis; assay type: functional, organism-based; settings: Severe acute respiratory syndrome coronavirus 2
# [12] = target: Stimulator of interferon genes protein (Homo sapiens) (UniProt Q86WV6); test: Induction of STING-dependent gene expression in human HT-1080 cells assessed as increase in diABZI induced IFNbeta mRNA expression at 20 uM incubated for 8 hrs by qRT-PCR analysis; assay type: cell-based; settings: filed as agonist
# [13] = target: Stimulator of interferon genes protein (Homo sapiens) (UniProt Q86WV6); test: Induction of STING-dependent gene expression in human HT-1080 cells assessed as increase in ADU-S100 induced IFNbeta mRNA expression at 20 uM incubated for 8 hrs by qRT-PCR analysis; assay type: cell-based; settings: filed as agonist
# [14] = target: Stimulator of interferon genes protein (Homo sapiens) (UniProt Q86WV6); test: Induction of STING-dependent gene expression in human THP1 cells assessed as TNFalpha mRNA expression at 2.5 to 20 uM incubated for 8 hrs by qRT-PCR analysis; assay type: cell-based; settings: THP-1, filed as agonist, dose 2.5-20 µM
# [15] = target: Stimulator of interferon genes protein (Homo sapiens) (UniProt Q86WV6); test: Agonist activity at STING in human HT-1080 cells assessed as increase in TBK1 phosphorylation at 2.5 to 20 uM measured after 5 hrs by Western blot analysis; assay type: cell-based; settings: filed as agonist, dose 2.5-20 µM
# [16] = system: Stimulator of interferon genes protein (Homo sapiens), Q86WV6 [C91S]; test: Induction of oligomerization of STING C91S (unknown origin) mutant in human HeLa cells transfected with wild type STING assessed as intracellular puncta formation at 10 uM measured after 1 hr by DAPI staining based immunofluorescence microscopy; assay type: cell-based; settings: filed as agonist
# [17] = system: Stimulator of interferon genes protein (Homo sapiens), Q86WV6 [V113Q,G114Q,P115Q]; test: Induction of STING V113Q/G114Q/P115Q mutant (unknown origin) mediated TBK1 phosphorylation in human HeLa cells transfected with STING C148A mutant at 10 uM measured after 5 hr by Western blot analysis; assay type: cell-based; settings: filed as agonist
# THP-1 = test: Effect on STING level in human THP1 cells at 2.5 to 20 uM incubated for 8 hrs by Western blot analysis; assay type: functional, cell-based; settings: dose 2.5-20 µM
# [18] = target: Stimulator of interferon genes protein (Homo sapiens) (UniProt Q86WV6); test: Induction of STING-dependent gene expression in human HT-1080 cells assessed as IFNbeta mRNA expression at 20 uM incubated for 8 hrs by qRT-PCR analysis; assay type: cell-based; settings: filed as agonist
# [19] = target: Stimulator of interferon genes protein (Homo sapiens) (UniProt Q86WV6); test: Induction of STING dimerization in human THP1 cells at 2.5 to 20 uM measured after 5 hrs by Western blot analysis; assay type: cell-based; settings: THP-1, filed as agonist, dose 2.5-20 µM
# RAW264.7 [20] = test: Synergistic increase in HSV infection-induced TBK1 phosphorylation in mouse RAW264.7 cells by Western blot analysis; assay type: functional, cell-based
# [21] = Antiviral activity against HSV infected in human HT-1080 cells assessed as reduction viral RNA expression pretreated for 1 hr followed by infection measured after 18 hrs by qRT-PCR analysis; assay type: functional, cell-based; settings: Herpes simplex virus unknown type
# [22] = target: Stimulator of interferon genes protein (Homo sapiens) (UniProt Q86WV6); test: Induction of STING dimerization in human HT-1080 cells at 2.5 to 20 uM measured after 5 hrs by Western blot analysis; assay type: cell-based; settings: filed as agonist, dose 2.5-20 µM
# [23] = system: Stimulator of interferon genes protein (Homo sapiens), Q86WV6 [C148A]; test: Induction of STING C148A mutant (unknown origin) mediated TBK1 phosphorylation in human HeLa cells transfected with STING C148A mutant at 10 uM measured after 5 hr by Western blot analysis; assay type: cell-based; settings: filed as agonist
# HEK-293T = test: Cytotoxicity against STING-deficient human 293T cells assessed as cell viability measured after 72 hrs by MTT assay; assay type: functional, cell-based
# Vero = test: Cytotoxicity against interferon production defective African green monkey Vero cells assessed as cell viability measured after 72 hrs by MTT assay; assay type: functional, cell-based; settings: Chlorocebus sabaeus
# HT-1080 [24] = test: Effect on TBK1 phosphorylation in STING - knockout human HT1080 cells at 20 uM measured after 5 hrs by Western blot analysis; assay type: functional, cell-based
# [25] = target: T1, Stimulator of interferon genes protein (Mus musculus); test: Induction of STING dimerization in mouse embryonic fibroblast cells at 2.5 to 20 uM measured after 5 hrs by Western blot analysis; assay type: cell-based; settings: MEF, filed as agonist, dose 2.5-20 µM
# HT-1080 [26] = test: Synergistic increase in HSV infection-induced TBK1 phosphorylation in human HT-1080 cells by Western blot analysis; assay type: functional, cell-based
# RAW264.7 [27] = test: Cytotoxicity against mouse RAW264.7 cells assessed as cell viability measured after 72 hrs by MTT assay; assay type: functional, cell-based; settings: RAW264.7, 72 h
# Mus musculus [28] = test: Induction of immune-activation effect in wild type female BALB/c mouse assessed as increase in serum IFNbeta level at 15 to 30 mg/kg, ip measured after 24 to 48 hrs by ELISA relative to control; assay type: functional, organism-based; settings: dose 15-30 mg/kg, time 24-48 hrs
# [29] = target: Stimulator of interferon genes protein (Homo sapiens) (UniProt Q86WV6); test: Induction of STING-dependent gene expression in human THP1 cells assessed as IFNbeta mRNA expression at 2.5 to 20 uM incubated for 8 hrs by qRT-PCR analysis; assay type: cell-based; settings: THP-1, filed as agonist, dose 2.5-20 µM
# [30] = target: Stimulator of interferon genes protein (Homo sapiens) (UniProt Q86WV6); test: Induction of STING-dependent gene expression in human HT-1080 cells assessed as increase in […] induced IFNbeta mRNA expression at 20 uM incubated for 8 hrs by qRT-PCR analysis; assay type: cell-based; settings: filed as agonist
# [31] = target: Stimulator of interferon genes protein (Homo sapiens) (UniProt Q86WV6); test: Agonist activity at STING in human HT-1080 cells assessed as increase in ADU-S100-induced TBK1 phosphorylation at 2.5 to 20 uM measured after 5 hrs by Western blot analysis; assay type: cell-based; settings: filed as agonist, dose 2.5-20 µM
# [32] = target: Stimulator of interferon genes protein (Homo sapiens) (UniProt Q86WV6); test: Induction of wild type STING mediated TBK1 phosphorylation in human HeLa cells transfected with wild type STING at 10 uM measured after 5 hr by Western blot analysis; assay type: cell-based; settings: filed as agonist
# HT-1080 [33] = test: Synergistic increase in […]-induced TBK1 phosphorylation in human HT-1080 cells by Western blot analysis; assay type: functional, cell-based
# BMDM = test: Effect on STING level in mouse BMDM cells at 2.5 to 20 uM incubated for 8 hrs by Western blot analysis; assay type: functional, cell-based; settings: dose 2.5-20 µM
# [34] = target: Stimulator of interferon genes protein (Homo sapiens) (UniProt Q86WV6); test: Agonist activity at STING in human THP1 cells assessed as increase in TBK1 phosphorylation at 2.5 to 20 uM measured after 5 hrs by Western blot analysis; assay type: cell-based; settings: THP-1, filed as agonist, dose 2.5-20 µM
# [35] = target: Stimulator of interferon genes protein (Homo sapiens) (UniProt Q86WV6); test: Agonist activity at STING in human HT-1080 cells assessed as increase in diABZI-induced TBK1 phosphorylation at 2.5 to 20 uM measured after 5 hrs by Western blot analysis; assay type: cell-based; settings: filed as agonist, dose 2.5-20 µM
# [36] = system: Stimulator of interferon genes protein (Homo sapiens), Q86WV6 [C88S,C91S]; test: Induction of oligomerization of STING C88S/C91S (unknown origin) double mutant in human HeLa cells transfected with wild type STING assessed as intracellular puncta formation at 10 uM measured after 1 hr by DAPI staining based immunofluorescence microscopy; assay type: cell-based; settings: filed as agonist
# [37] = target: T1, Stimulator of interferon genes protein (Mus musculus); test: Agonist activity at STING in mouse embryonic fibroblast cells assessed as increase in TBK1 phosphorylation at 2.5 to 20 uM measured after 5 hrs by Western blot analysis; assay type: cell-based; settings: MEF, filed as agonist, dose 2.5-20 µM
# Stimulator of interferon genes protein (Homo sapiens), sequence (Q86WV6 whole entry): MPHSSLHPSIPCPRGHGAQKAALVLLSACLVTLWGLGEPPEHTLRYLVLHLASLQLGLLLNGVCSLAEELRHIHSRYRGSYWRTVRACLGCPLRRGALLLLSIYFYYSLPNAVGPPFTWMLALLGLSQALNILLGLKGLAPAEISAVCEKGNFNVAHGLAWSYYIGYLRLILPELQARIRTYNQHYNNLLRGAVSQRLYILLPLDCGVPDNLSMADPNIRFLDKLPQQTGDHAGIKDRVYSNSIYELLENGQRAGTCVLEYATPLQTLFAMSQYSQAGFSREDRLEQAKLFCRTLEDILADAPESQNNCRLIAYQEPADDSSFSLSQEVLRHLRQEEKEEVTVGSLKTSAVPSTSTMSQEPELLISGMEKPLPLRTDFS
# Stimulator of interferon genes protein (Homo sapiens), Q86WV6 [C91S], sequence (Q86WV6 whole entry C91S): as the sequence (Q86WV6 whole entry) above, with C91S counted along it
# Stimulator of interferon genes protein (Homo sapiens), Q86WV6 [C88S,C91S], sequence (Q86WV6 whole entry C88S/C91S): as the sequence (Q86WV6 whole entry) above, with C88S, C91S counted along it
# Stimulator of interferon genes protein (Homo sapiens), Q86WV6 [C148A], sequence (Q86WV6 whole entry C148A): as the sequence (Q86WV6 whole entry) above, with C148A counted along it
# Stimulator of interferon genes protein (Homo sapiens), Q86WV6 [V113Q,G114Q,P115Q], sequence (Q86WV6 whole entry V113Q/G114Q/P115Q): as the sequence (Q86WV6 whole entry) above, with V113Q, G114Q, P115Q counted along it
smiles,measurement,setting,value
O=C(NCCCCCNC(=O)c1ccc([N+](=O)[O-])o1)c1ccc([N+](=O)[O-])o1,Activity,RAW264.7 [1],Active
same,EC50,[2],6.8 µM
same,Activity,[3],Active
same,Activity,Mus musculus [4],Active
same,Activity,[5],Active
same,IC50,HT-1080 [6],9.31 µM
same,Activity,[7],Active
same,Activity,[8],Active
same,Activity,[9],Active
same,Activity,[10],Active
same,Activity,[11],Active
same,EC50,SARS-CoV-2,10.7 µM
same,Activity,[12],Active
same,Activity,[13],Active
same,Activity,[14],Active
same,Activity,[15],Active
same,Activity,[16],Active
same,Activity,[17],Active
same,Activity,THP-1,inactive
same,Activity,[18],Active
same,Activity,[19],Active
same,Activity,RAW264.7 [20],Active
same,EC50,[21],6.15 µM
same,Activity,[22],Active
same,Activity,[23],Active
same,IC50,HEK-293T,22.4 µM
same,IC50,Vero,28.4 µM
same,Activity,HT-1080 [24],inactive
same,Activity,[25],Active
same,Activity,HT-1080 [26],inactive
same,IC50,RAW264.7 [27],8.69 µM
same,Activity,Mus musculus [28],Active
same,Activity,[29],Active
same,Activity,[30],Active
same,Activity,[31],Active
same,Activity,[32],Active
same,Activity,HT-1080 [33],Active
same,Activity,BMDM,inactive
same,Activity,[34],Active
same,Activity,[35],Active
same,Activity,[36],Active
same,Activity,[37],Active

# — ChEMBL document CHEMBL5385872, “Design and syntheses of a bimolecular STING agonist based on the covalent STING antagonist” (Eur J Med Chem, 2023)
